Laboratory results as given in PubChem BioAssay (NCI).
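Interpolation was linear, between the two tested concentrations surrounding the appropriate level; five concentrations were tested over 48 hours in 96-well plates. Abbreviation: GI50, concentration required for 50% inhibition of growth. At the TGI there is no net growth.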

How the values were obtained:
Test in all cases: NCI tumour cell line growth inhibition, 48 h
786-0 renal = test system: 786-0 renal
A498 renal = test system: A498 renal
A549 NSCLC = test system: A549 NSCLC
ACHN renal = test system: ACHN renal
CAKI-1 renal = test system: CAKI-1 renal
CCRF-CEM leukemia = test system: CCRF-CEM leukemia
COLO 205 colon = test system: COLO 205 colon
DU-145 prostate = test system: DU-145 prostate
EKVX NSCLC = test system: EKVX NSCLC
HCC-2998 colon = test system: HCC-2998 colon
HCT-116 colon = test system: HCT-116 colon
HCT-15 colon = test system: HCT-15 colon
HL-60(TB) leukemia = test system: HL-60(TB) leukemia
HOP-62 NSCLC = test system: HOP-62 NSCLC
HOP-92 NSCLC = test system: HOP-92 NSCLC
HS 578T breast = test system: HS 578T breast
IGROV1 ovarian = test system: IGROV1 ovarian
K-562 leukemia = test system: K-562 leukemia
KM12 colon = test system: KM12 colon
LOX IMVI melanoma = test system: LOX IMVI melanoma
M14 melanoma = test system: M14 melanoma
MALME-3M melanoma = test system: MALME-3M melanoma
MCF7 breast = test system: MCF7 breast
MDA-MB-231 breast = test system: MDA-MB-231 breast
MDA-MB-435 = test system: MDA-MB-435
MOLT-4 leukemia = test system: MOLT-4 leukemia
NCI-H226 lung = test system: NCI-H226 lung
NCI-H23 lung = test system: NCI-H23 lung
NCI-H460 lung = test system: NCI-H460 lung
NCI/ADR-RES ovarian = test system: NCI/ADR-RES ovarian
OVCAR-3 ovarian = test system: OVCAR-3 ovarian
OVCAR-4 ovarian = test system: OVCAR-4 ovarian
OVCAR-5 ovarian = test system: OVCAR-5 ovarian
OVCAR-8 ovarian = test system: OVCAR-8 ovarian
PC-3 prostate = test system: PC-3 prostate
RPMI-8226 leukemia = test system: RPMI-8226 leukemia
RXF 393 renal = test system: RXF 393 renal
SF-268 CNS = test system: SF-268 CNS
SF-295 CNS = test system: SF-295 CNS
SF-539 CNS = test system: SF-539 CNS
SK-MEL-28 melanoma = test system: SK-MEL-28 melanoma
SK-MEL-5 melanoma = test system: SK-MEL-5 melanoma
SK-OV-3 ovarian = test system: SK-OV-3 ovarian
SN12C renal = test system: SN12C renal
SNB-19 CNS = test system: SNB-19 CNS
SNB-75 CNS = test system: SNB-75 CNS
SR leukemia = test system: SR leukemia
SW-620 colon = test system: SW-620 colon
T-47D breast = test system: T-47D breast
U251 CNS = test system: U251 CNS
UACC-257 melanoma = test system: UACC-257 melanoma
UACC-62 melanoma = test system: UACC-62 melanoma
UO-31 renal = test system: UO-31 renal

Structure (SMILES): CC(C)COc1nc2c(c(=O)n(C)c(=O)n2C)n1C
- GI50 (786-0 renal): > 100 µM
- TGI (786-0 renal): > 100 µM
- GI50 (A498 renal): > 100 µM
- TGI (A498 renal): > 100 µM
- GI50 (A549 NSCLC): > 100 µM
- TGI (A549 NSCLC): > 100 µM
- GI50 (ACHN renal): > 100 µM
- TGI (ACHN renal): > 100 µM
- GI50 (CAKI-1 renal): 18.2 µM
- TGI (CAKI-1 renal): > 100 µM
- GI50 (CCRF-CEM leukemia): > 100 µM
- TGI (CCRF-CEM leukemia): > 100 µM
- GI50 (COLO 205 colon): > 100 µM
- TGI (COLO 205 colon): > 100 µM
- GI50 (DU-145 prostate): > 100 µM
- TGI (DU-145 prostate): > 100 µM
- GI50 (EKVX NSCLC): > 100 µM
- TGI (EKVX NSCLC): > 100 µM
- GI50 (HCC-2998 colon): > 100 µM
- TGI (HCC-2998 colon): > 100 µM
- GI50 (HCT-116 colon): > 100 µM
- TGI (HCT-116 colon): > 100 µM
- GI50 (HCT-15 colon): > 100 µM
- TGI (HCT-15 colon): > 100 µM
- GI50 (HL-60(TB) leukemia): > 100 µM
- TGI (HL-60(TB) leukemia): > 100 µM
- GI50 (HOP-62 NSCLC): > 100 µM
- TGI (HOP-62 NSCLC): > 100 µM
- GI50 (HOP-92 NSCLC): > 100 µM
- TGI (HOP-92 NSCLC): > 100 µM
- GI50 (HS 578T breast): 64.1 µM
- TGI (HS 578T breast): > 100 µM
- GI50 (IGROV1 ovarian): 0.544 µM
- TGI (IGROV1 ovarian): > 100 µM
- GI50 (K-562 leukemia): > 100 µM
- TGI (K-562 leukemia): > 100 µM
- GI50 (KM12 colon): > 100 µM
- TGI (KM12 colon): > 100 µM
- GI50 (LOX IMVI melanoma): > 100 µM
- TGI (LOX IMVI melanoma): > 100 µM
- GI50 (M14 melanoma): > 100 µM
- TGI (M14 melanoma): > 100 µM
- GI50 (MALME-3M melanoma): > 100 µM
- TGI (MALME-3M melanoma): > 100 µM
- GI50 (MCF7 breast): > 100 µM
- TGI (MCF7 breast): > 100 µM
- GI50 (MDA-MB-231 breast): > 100 µM
- TGI (MDA-MB-231 breast): > 100 µM
- GI50 (MDA-MB-435): > 100 µM
- TGI (MDA-MB-435): > 100 µM
- GI50 (MOLT-4 leukemia): > 100 µM
- TGI (MOLT-4 leukemia): > 100 µM
- GI50 (NCI-H226 lung): > 100 µM
- TGI (NCI-H226 lung): > 100 µM
- GI50 (NCI-H23 lung): > 100 µM
- TGI (NCI-H23 lung): > 100 µM
- GI50 (NCI-H460 lung): > 100 µM
- TGI (NCI-H460 lung): > 100 µM
- GI50 (NCI/ADR-RES ovarian): > 100 µM
- TGI (NCI/ADR-RES ovarian): > 100 µM
- GI50 (OVCAR-3 ovarian): > 100 µM
- TGI (OVCAR-3 ovarian): > 100 µM
- GI50 (OVCAR-4 ovarian): > 100 µM
- TGI (OVCAR-4 ovarian): > 100 µM
- GI50 (OVCAR-5 ovarian): > 100 µM
- TGI (OVCAR-5 ovarian): > 100 µM
- GI50 (OVCAR-8 ovarian): > 100 µM
- TGI (OVCAR-8 ovarian): > 100 µM
- GI50 (PC-3 prostate): > 100 µM
- TGI (PC-3 prostate): > 100 µM
- GI50 (RPMI-8226 leukemia): > 100 µM
- TGI (RPMI-8226 leukemia): > 100 µM
- GI50 (RXF 393 renal): > 100 µM
- TGI (RXF 393 renal): > 100 µM
- GI50 (SF-268 CNS): > 100 µM
- TGI (SF-268 CNS): > 100 µM
- GI50 (SF-295 CNS): > 100 µM
- TGI (SF-295 CNS): > 100 µM
- GI50 (SF-539 CNS): > 100 µM
- TGI (SF-539 CNS): > 100 µM
- GI50 (SK-MEL-28 melanoma): > 100 µM
- TGI (SK-MEL-28 melanoma): > 100 µM
- GI50 (SK-MEL-5 melanoma): > 100 µM
- TGI (SK-MEL-5 melanoma): > 100 µM
- GI50 (SK-OV-3 ovarian): > 100 µM
- TGI (SK-OV-3 ovarian): > 100 µM
- GI50 (SN12C renal): > 100 µM
- TGI (SN12C renal): > 100 µM
- GI50 (SNB-19 CNS): > 100 µM
- TGI (SNB-19 CNS): > 100 µM
- GI50 (SNB-75 CNS): 47 µM
- TGI (SNB-75 CNS): > 100 µM
- GI50 (SR leukemia): > 100 µM
- TGI (SR leukemia): > 100 µM
- GI50 (SW-620 colon): > 100 µM
- TGI (SW-620 colon): > 100 µM
- GI50 (T-47D breast): > 100 µM
- TGI (T-47D breast): > 100 µM
- GI50 (U251 CNS): > 100 µM
- TGI (U251 CNS): > 100 µM
- GI50 (UACC-257 melanoma): > 100 µM
- TGI (UACC-257 melanoma): > 100 µM
- GI50 (UACC-62 melanoma): > 100 µM
- TGI (UACC-62 melanoma): > 100 µM
- GI50 (UO-31 renal): > 100 µM
- TGI (UO-31 renal): > 100 µM
